# Molecular target: T1, human PDE2A1 (Homo sapiens, UniProt O00408)
# T1 construct: GST; purchased BPS Bioscience (San Diego, Calif.) 60020; host or cells: insect cells
# Experiment: IMAP FP PDE selectivity panel, human PDE2A1
# Type: biochemical
# Conditions: Lab B; read-out: Human PDE2 Ki (nM) Lab B
# How it was run: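 IMAP FP read-out, run at room temperature in parallel with PDE1–11: enzyme at 20% substrate conversion, 50 nM FAM-cAMP containing 1000 nM cGMP, Tris pH 7.2/MgCl2/DTT buffer. Compounds as ten 3-fold dilutions. Reaction 60 min, stopped with binding reagent for 1 h before polarization measurement.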
# T1 sequence (O00408 1-920 isoform O00408-2): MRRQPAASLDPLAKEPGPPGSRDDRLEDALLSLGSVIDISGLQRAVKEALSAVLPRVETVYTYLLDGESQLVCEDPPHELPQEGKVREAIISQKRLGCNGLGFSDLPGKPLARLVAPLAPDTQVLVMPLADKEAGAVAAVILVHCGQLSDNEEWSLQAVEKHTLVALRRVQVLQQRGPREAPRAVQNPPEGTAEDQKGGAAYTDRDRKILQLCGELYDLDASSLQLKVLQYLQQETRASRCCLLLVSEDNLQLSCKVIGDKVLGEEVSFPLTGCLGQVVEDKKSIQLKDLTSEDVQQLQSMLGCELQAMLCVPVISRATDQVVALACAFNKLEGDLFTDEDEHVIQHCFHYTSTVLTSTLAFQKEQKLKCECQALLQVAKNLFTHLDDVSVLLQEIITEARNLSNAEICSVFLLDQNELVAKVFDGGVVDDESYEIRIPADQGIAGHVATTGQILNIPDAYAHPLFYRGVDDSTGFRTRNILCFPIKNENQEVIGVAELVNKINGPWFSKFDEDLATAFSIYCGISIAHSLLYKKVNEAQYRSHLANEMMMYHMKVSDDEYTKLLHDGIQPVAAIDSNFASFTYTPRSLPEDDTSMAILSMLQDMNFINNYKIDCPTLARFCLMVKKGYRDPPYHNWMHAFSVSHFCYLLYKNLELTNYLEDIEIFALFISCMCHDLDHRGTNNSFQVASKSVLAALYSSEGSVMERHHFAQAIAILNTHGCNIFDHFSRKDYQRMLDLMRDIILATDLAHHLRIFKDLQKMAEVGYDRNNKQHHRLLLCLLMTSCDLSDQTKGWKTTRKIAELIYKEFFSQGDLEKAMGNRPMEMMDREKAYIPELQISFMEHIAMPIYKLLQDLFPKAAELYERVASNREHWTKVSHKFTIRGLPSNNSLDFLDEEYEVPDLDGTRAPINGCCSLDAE
row,Ki,SMILES
1,> 2960 nM,"Cc1cc(NC(c2ccc(-c3ccccc3)cc2)C(C)(C)O)n2ncnc2n1 (single isomer, unassigned) [Example 126, (1S or R)-1-Biphenyl-4-yl-2-methyl-1-[(5-methyl[1,2,4]triazolo[1,5-a]pyrimidin-7-yl)amino]propan-2-ol]"
2,> 2960 nM,"Cc1cc(NC(c2ccc(OC(F)(F)F)c(F)c2)C(C)(C)CO)n2ncnc2n1 (single isomer, unassigned) [Example 232, (S or S)-3-(3-fluoro-4-(trifluoromethoxy)phenyl)-2,2-dimethyl-3-(5-methyl-[1,2,4]triazolo[1,5-a]pyrimidin-7-ylamino)propan-1-ol]"
3,40 nM,"CC(C)(O)[C@@H](Nc1cc(C(F)F)cc2ncnn12)c1ccc(OC(F)(F)F)cc1F [Example 281, (1S)-1-{[7-(Difluoromethyl) [1,2,4]triazolo[1,5-a]pyridin-5-yl]amino}-1-[2-fluoro-4-(trifluoromethoxy)phenyl]-2-methylpropan-2-ol]"
4,> 2960 nM,"Cc1cc(N(C)C(c2ccc(OC(F)(F)F)c(F)c2)C(C)(C)O)n2ncnc2n1 (single isomer, unassigned) [Example 248, (S)- or (R)-1-(3-Fluoro-4-(trifluoromethoxy)phenyl)-2-methyl-1-(methyl(5-methyl-[1,2,4]triazolo [1,5-a]pyrimidine-7-yl)amino) propan-2-ol]"
5,138 nM,"Cc1cc(N[C@H](C)c2ccc(OC(F)(F)F)c(Cl)c2)n2ncnc2n1 [Example 9, N-{(1R)-1-[3-Chloro-4-(trifluoromethoxy)phenyl]ethyl}-5-methyl[1,2,4]triazolo[1,5-a] pyrimidin-7-amine]"
6,> 2960 nM,"CC(C)(O)C(Nc1cc(C(F)(F)F)nc2ncnn12)c1ccc(C(F)F)cc1 (single isomer, unassigned) [Example 164, (1R or S)-1-[4-(Difluoromethyl)phenyl]-2-methyl-1-{[5-(trifluoromethyl) [1,2,4]triazolo [1,5-a]pyrimidin-7-yl]amino} propan-2-ol]"
7,> 2960 nM,C[C@H](Nc1cncc2ncnn12)c1ccc(C(F)(F)F)cc1 [Example 289]
8,15 nM,"CC(C)(O)C(Nc1cc(C(F)F)nc2ncnn12)c1ccc(OC(F)F)cc1Cl (single isomer, unassigned) [Example 183, (1S or R)-[2-Chloro-4-(difluoromethoxy)phenyl]-1-{[5-(difluoromethyl) [1,2,4]triazolo [1,5-a]pyrimidin-7-yl]amino}-2-methylpropan-2-ol]"
9,5.5 nM,"CC(C)(O)C(Nc1cc(C(F)F)nc2ncnn12)c1ccc(OC(F)(F)F)c(F)c1 (single isomer, unassigned) [Example 187, (1S or R)-{[5-(Difluoromethyl) [1,2,4]triazolo [1,5-a]pyrimidin-7-yl]amino}-1-[3-fluoro-4-(trifluoromethoxy)phenyl]-2-methylpropan-2-ol]"
10,33 nM,"CCc1nc2nc(C)cc(N[C@@H](c3ccc(C(F)(F)F)c(F)c3)C(C)(C)C)n2n1 [Example 203, (R)-2-Ethyl-N-(1-(3-fluoro-4-(trifluoromethyl)phenyl)-2,2-dimethylpropyl)-5-methyl-[1,2,4]triazolo [1,5-a]pyrimidin-7-amine]"
11,33 nM,"Cc1cc(NC2(c3ccc(SC(F)(F)F)c(F)c3)CC2)n2ncnc2n1 [Example 63, N-(1-{3-Fluoro-4-[(trifluoromethyl)sulfanyl]phenyl}cyclopropyl)-5-methyl[1,2,4]triazolo[1,5-a] pyrimidin-7-amine]"
12,46 nM,Cc1cc(N(C)C2(c3ccc(C(F)(F)F)c(F)c3)CC2)n2ncnc2n1 [Example 246]
13,7.8 nM,"CC(C)(O)[C@@H](Nc1cc(C(F)F)cc2ncnn12)c1ccc(S(F)(F)(F)(F)F)cc1 [Example 282, (1S)-1-{[7-(Difluoromethyl) [1,2,4]triazolo[1,5-a]pyridin-5-yl]amino}-2-methyl-1-[4-(pentafluoro-λ^6-sulfanyl)phenyl]propan-2-ol]"
14,~1750 nM,"Cc1nc2ncnn2c(N[C@@H](C)c2ccc(C(F)(F)F)cc2)c1C [Example 86, 5,6-Dimethyl-N-{(1S)-1-[4-(trifluoromethyl)phenyl]ethyl}[1,2,4]triazolo[1,5-a]pyrimidin-7-amine]"
15,329 nM,"COCC(Nc1cc(C(F)(F)F)nc2ncnn12)c1ccc(C(F)(F)F)c(F)c1 (single isomer, unassigned) [Example 217, (R)- or (S)-N-(1-(3-Fluoro-4-(trifluoromethyl)phenyl)-2-methoxyethyl)-5-(trifluoromethyl)-[1,2,4]triazolo [1,5-a]pyrimidin-7-amine]"
16,75 nM,"Cc1cc(NC2(c3ccc(SC(F)(F)F)cc3)CCC2)n2ncnc2n1 [Example 65, 5-Methyl-N-(1-{4-[(trifluoromethyl)sulfanyl]phenyl}cyclobutyl)[1,2,4] triazolo[1,5-a]pyrimidin-7-amine]"

row,Ki,SMILES
1,184 nM,"CC(C)(O)C(Nc1cc(C(F)(F)F)nc2ncnn12)c1ccc2c(c1)OC(F)(F)O2 (single isomer, unassigned) [Example 167, (1S or R)-1-(2,2-Difluoro-1,3-benzodioxol-5-yl)-2-methyl-1-{[5-(trifluoromethyl) [1,2,4]triazolo [1,5-a]pyrimidin-7-yl]amino} propan-2-ol]"
2,108 nM,"Cc1cc(NC2(c3ccc(SC(F)(F)F)c(F)c3)CCC2)n2ncnc2n1 [Example 66, N-(1-{3-Fluoro-4-[(trifluoromethyl)sulfanyl]phenyl}cyclobutyl)-5-methyl[1,2,4]triazolo[1,5-a] pyrimidin-7-amine]"
3,52 nM,"CC(C)(O)C(Nc1cc(C(F)(F)F)nc2ncnn12)c1ccc(OC(F)F)cc1 (single isomer, unassigned) [Example 165, (1S or R)-1-[4-(Difluoromethoxy)phenyl]-2-methyl-1-{[5-(trifluoromethyl) [1,2,4]triazolo [1,5-a]pyrimidin-7-yl]amino} propan-2-ol]"
4,256 nM,"COc1cc(N[C@@H](c2ccc(C(F)(F)F)c(F)c2)C(C)(C)C)n2ncnc2n1 [Example 233, (R)—N-(1-(3-Fluoro-4-(trifluoromethyl)phenyl)-2,2-dimethylpropyl)-5-methoxy-[1,2,4]triazolo[1,5-a]pyrimidin-7-amine]"
5,~2190 nM,"CC(C)(O)C(Nc1cc(C(F)(F)F)nc2ncnn12)c1ccc(OC(F)F)cc1 (single isomer, unassigned) [Example 166, (1R or S)-1-[4-(Difluoromethoxy)phenyl]-2-methyl-1-{[5-(trifluoromethyl) [1,2,4]triazolo [1,5-a]pyrimidin-7-yl]amino} propan-2-ol]"
6,> 2960 nM,"CC(C)(C)c1cc(NC(c2ccc(S(F)(F)(F)(F)F)cc2)C(C)(C)O)n2ncnc2n1 (single isomer, unassigned) [Example 150, (1S or R)-1-[(5-tert-Butyl[1,2,4]triazolo[1,5-a]pyrimidin-7-yl)amino]-2-methyl-1-[4-(pentafluoro-λ^6-sulfanyl)phenyl] propan-2-ol]"
7,387 nM,"C[C@@H](Nc1cc(CO)nc2ncnn12)c1ccc(C(F)(F)F)c(F)c1 [Example 80, [7-({(1R)-1-[3-Fluoro-4-(trifluoromethyl)phenyl]ethyl}amino)[1,2,4]triazolo[1,5-a]pyrimidin-5-yl]methanol]"
8,> 2960 nM,"CCC(O)(CC)C(Nc1cc(C)nc2ncnn12)c1ccc(C(F)(F)F)c(F)c1 (single isomer, unassigned) [Example 215, (R)- or (S)-3-((3-Fluoro-4-(trifluoromethyl)phenyl)(5-methyl-[1,2,4]triazolo [1,5-a]pyrimidin-7-ylamino)methyl) pentan-3-ol]"
9,17 nM,"CC(C)(O)C(Nc1cc(C(F)F)nc2ncnn12)c1ccc(OC(F)F)c(F)c1 (single isomer, unassigned) [Example 189, (1S or R)-[4-(Difluoromethoxy)-3-fluorophenyl]-1-{[5-(difluoromethyl) [1,2,4]triazolo [1,5-a]pyrimidin-7-yl]amino}-2-methylpropan-2-ol]"
10,15 nM,"CC[C@@H](Nc1cc(C)nc2ncnn12)c1ccc(SC(F)(F)F)cc1 [Example 17, 5-Methyl-N-[(1R)-1-{4-[(trifluoromethyl)sulfanyl]phenyl}propyl][1,2,4]triazolo[1,5-a] pyrimidin-7-amine]"
11,67 nM,"Cc1cc(N[C@@H](c2ccc(C(F)(F)F)c(F)c2)C(C)(C)C)n2nc(CF)nc2n1 [Example 191, 2-(Fluoromethyl)-N-{(1R)-1-[3-fluoro-4-(trifluoromethyl)phenyl]-2,2-dimethylpropyl}-5-methyl[1,2,4]triazolo[1,5-a]pyrimidin-7-amine]"
12,> 2960 nM,"CC(C)(C)c1cc(NC(c2ccc(OC(F)(F)F)cc2F)C(C)(C)O)n2ncnc2n1 (single isomer, unassigned) [Example 149, (1R or S)-1-[(5-tert-butyl[1,2,4]triazolo[1,5-a]pyrimidin-7-yl)amino]-1-[2-fluoro-4-(trifluoro-methoxy)phenyl]-2-methylpropan-2-ol]"
13,> 2960 nM,"CC1(c2ccc(C(Nc3cc(C(F)(F)F)nc4ncnn34)C(C)(C)O)cc2)CC1 (single isomer, unassigned) [Example 179, (1S or R)-2-Methyl-1-[4-(1-methylcyclopropyl)phenyl]-1-{[5-(trifluoromethyl) [1,2,4]triazolo [1,5-a]pyrimidin-7-yl]amino} propan-2-ol]"
14,> 2960 nM,"CC(C)(O)C(Nc1cc(C(F)(F)F)nc2ncnn12)c1ccc(CC(F)(F)F)cc1 (single isomer, unassigned) [Example 170, (1R or S)-2-Methyl-1-[4-(2,2,2-trifluoroethyl)phenyl]-1-{[5-(trifluoromethyl) [1,2,4]triazolo [1,5-a]pyrimidin-7-yl]amino} propan-2-ol]"
15,167 nM,"Cc1cc(NC(c2ccc(OC(F)(F)F)c(F)c2)C2COC2)n2ncnc2n1 (single isomer, unassigned) [Example 230, (S)- or (R)-N-((3-Fluoro-4-(trifluoromethoxy)phenyl)(oxetan-3-yl)methyl)-5-methyl-[1,2,4]triazolo [1,5-a]pyrimidin-7-amine]"
